Assay results as given in PMC6409085, “Three odorant-binding proteins are involved in the behavioral response of Sogatella furcifera to rice plant volatiles” (PeerJ, 2019).
“And” between values parts separate entries of the source, which are not always exact repeats. Equal entries are not always repeated.

How the values were obtained:
S. furcifera adults = assay: Y-tube olfactometer behavioral trials; format: in vivo, Sogatella furcifera; conditions: odorant 50 µL/L vs hexane
Summary of the method: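 Single S. furcifera adults (2 days post-emergence, starved 0.5 h) chose between odorant (100 µL of 50 µL/L on filter paper) and hexane control in a glass Y-tube, charcoal-filtered humidified air 300 mL/min per arm, 25 ± 1 °C, 50% RH. Choice scored if insect passed half an arm and stayed >1 min within 10 min; 45 insects per compound, chi-squared test.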

SfurOBP2 = SfurOBP2 (Sogatella furcifera, UniProt V5T759); assay: biochemical; format: binding
Summary of the method: (§1)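 K1-NPN came from titrating 2.0 µM protein (50 mM Tris-HCl, pH 7.4) with 1-NPN. Odorants at 2-20 µM then competed against 2.0 µM protein plus 2.0 µM 1-NPN for 2 min, with excitation at 337 nm and emission recorded over 390-490 nm. IC50 values were converted to Ki via Ki = IC50/(1 + [1-NPN]/K1-NPN).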

SfurOBP11 = SfurOBP11 (Sogatella furcifera, UniProt V5T6E3); assay: biochemical; format: binding
Summary of the method: as §1

SfurOBP3 = SfurOBP3 (Sogatella furcifera, UniProt V5T818); assay: biochemical; format: binding; conditions: for Fluorescence competitive binding assay, fluorescence intensity: OBP3, three replicate columns
Summary of the method: as §1

SfurOBP1 = SfurOBP1 (Sogatella furcifera, UniProt V5T8N5); assay: biochemical; format: binding; conditions: for Fluorescence competitive binding assay, fluorescence intensity: OBP1, three replicate columns
Summary of the method: as §1

Chain of SfurOBP2 (V5T759 entry or part of it): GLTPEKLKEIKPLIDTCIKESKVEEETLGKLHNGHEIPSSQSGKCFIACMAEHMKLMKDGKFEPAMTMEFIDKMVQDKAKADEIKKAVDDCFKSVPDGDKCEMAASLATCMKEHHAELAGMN
Chain of SfurOBP1 (V5T8N5 entry or part of it): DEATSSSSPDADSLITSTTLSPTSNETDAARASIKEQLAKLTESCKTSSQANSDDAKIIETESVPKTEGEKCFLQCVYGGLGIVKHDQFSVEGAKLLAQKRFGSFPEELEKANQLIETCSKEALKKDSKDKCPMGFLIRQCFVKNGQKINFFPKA
Chain of SfurOBP11 (V5T6E3 entry or part of it): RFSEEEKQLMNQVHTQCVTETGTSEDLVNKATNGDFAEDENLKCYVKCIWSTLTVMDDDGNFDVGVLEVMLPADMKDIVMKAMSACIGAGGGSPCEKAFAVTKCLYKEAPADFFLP
Chain of SfurOBP3 (V5T818 entry or part of it): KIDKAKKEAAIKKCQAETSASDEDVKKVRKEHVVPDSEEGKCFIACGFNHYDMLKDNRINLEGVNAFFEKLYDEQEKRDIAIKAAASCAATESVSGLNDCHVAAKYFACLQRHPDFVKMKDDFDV

## C=C(C)C1CC=C(C)CC1 (single isomer, unassigned; (+)) [(+)-limonene]
S. furcifera adults
  behavioral response of S. furcifera (in words): strongly attracted
S. furcifera adults; adults
  number of insects choosing hexane arm: 7
  number of insects choosing volatilies arm: 16
  number of insects failed (no choice): 17
SfurOBP2; SfurOBP2, protein and 1-NPN both 2.0 µM, competitor 2-20 µM, read-out: IC50
  IC50: > 20 µM
SfurOBP2; ligand concentration 2 (unit not given), replicate column 1 of 3
  Fluorescence competitive binding assay, OBP2 (raw fluorescence reading): 18785
SfurOBP2; ligand concentration 2 (unit not given), replicate column 2 of 3
  Fluorescence competitive binding assay, OBP2 (raw fluorescence reading): 17646
SfurOBP2; ligand concentration 2 (unit not given), replicate column 3 of 3
  Fluorescence competitive binding assay, OBP2 (raw fluorescence reading): 18955
SfurOBP2; ligand concentration 4 (unit not given), replicate column 1 of 3
  Fluorescence competitive binding assay, OBP2 (raw fluorescence reading): 19168
SfurOBP2; ligand concentration 4 (unit not given), replicate column 2 of 3
  Fluorescence competitive binding assay, OBP2 (raw fluorescence reading): 18029
SfurOBP2; ligand concentration 4 (unit not given), replicate column 3 of 3
  Fluorescence competitive binding assay, OBP2 (raw fluorescence reading): 18599
SfurOBP2; ligand concentration 6 (unit not given), replicate column 1 of 3
  Fluorescence competitive binding assay, OBP2 (raw fluorescence reading): 18726
SfurOBP2; ligand concentration 6 (unit not given), replicate column 2 of 3
  Fluorescence competitive binding assay, OBP2 (raw fluorescence reading): 17846
SfurOBP2; ligand concentration 6 (unit not given), replicate column 3 of 3
  Fluorescence competitive binding assay, OBP2 (raw fluorescence reading): 18376
SfurOBP2; ligand concentration 8 (unit not given), replicate column 1 of 3
  Fluorescence competitive binding assay, OBP2 (raw fluorescence reading): 17673
SfurOBP2; ligand concentration 8 (unit not given), replicate column 2 of 3
  Fluorescence competitive binding assay, OBP2 (raw fluorescence reading): 18323
SfurOBP2; ligand concentration 8 (unit not given), replicate column 3 of 3
  Fluorescence competitive binding assay, OBP2 (raw fluorescence reading): 17474
SfurOBP2; ligand concentration 10 (unit not given), replicate column 1 of 3
  Fluorescence competitive binding assay, OBP2 (raw fluorescence reading): 16329
SfurOBP2; ligand concentration 10 (unit not given), replicate column 2 of 3
  Fluorescence competitive binding assay, OBP2 (raw fluorescence reading): 16489
SfurOBP2; ligand concentration 10 (unit not given), replicate column 3 of 3
  Fluorescence competitive binding assay, OBP2 (raw fluorescence reading): 16675
SfurOBP2; ligand concentration 12 (unit not given), replicate column 1 of 3
  Fluorescence competitive binding assay, OBP2 (raw fluorescence reading): 16493
SfurOBP2; ligand concentration 12 (unit not given), replicate column 2 of 3
  Fluorescence competitive binding assay, OBP2 (raw fluorescence reading): 16176
SfurOBP2; ligand concentration 12 (unit not given), replicate column 3 of 3
  Fluorescence competitive binding assay, OBP2 (raw fluorescence reading): 16335
SfurOBP2; ligand concentration 14 (unit not given), replicate column 1 of 3
  Fluorescence competitive binding assay, OBP2 (raw fluorescence reading): 13873
SfurOBP2; ligand concentration 14 (unit not given), replicate column 2 of 3
  Fluorescence competitive binding assay, OBP2 (raw fluorescence reading): 13950
SfurOBP2; ligand concentration 14 (unit not given), replicate column 3 of 3
  Fluorescence competitive binding assay, OBP2 (raw fluorescence reading): 13912
SfurOBP2; ligand concentration 16 (unit not given), replicate column 1 of 3
  Fluorescence competitive binding assay, OBP2 (raw fluorescence reading): 12506
SfurOBP2; ligand concentration 16 (unit not given), replicate column 2 of 3
  Fluorescence competitive binding assay, OBP2 (raw fluorescence reading): 13445
SfurOBP2; ligand concentration 16 (unit not given), replicate column 3 of 3
  Fluorescence competitive binding assay, OBP2 (raw fluorescence reading): 12627
SfurOBP2; ligand concentration 18 (unit not given), replicate column 1 of 3
  Fluorescence competitive binding assay, OBP2 (raw fluorescence reading): 13201
SfurOBP2; ligand concentration 18 (unit not given), replicate column 2 of 3
  Fluorescence competitive binding assay, OBP2 (raw fluorescence reading): 13156
SfurOBP2; ligand concentration 18 (unit not given), replicate column 3 of 3
  Fluorescence competitive binding assay, OBP2 (raw fluorescence reading): 13110
SfurOBP2; ligand concentration 20 (unit not given), replicate column 1 of 3
  Fluorescence competitive binding assay, OBP2 (raw fluorescence reading): 12573
SfurOBP2; ligand concentration 20 (unit not given), replicate column 2 of 3
  Fluorescence competitive binding assay, OBP2 (raw fluorescence reading): 13554
SfurOBP2; ligand concentration 20 (unit not given), replicate column 3 of 3
  Fluorescence competitive binding assay, OBP2 (raw fluorescence reading): 12438
SfurOBP11; SfurOBP11, protein and 1-NPN both 2.0 µM, competitor 2-20 µM, read-out: IC50
  IC50: > 20 µM
SfurOBP11; ligand concentration 2, replicate 1
  Fluorescence intensity, fluorescence competitive binding assay, OBP11: 20185
SfurOBP11; ligand concentration 2, replicate 2
  Fluorescence intensity, fluorescence competitive binding assay, OBP11: 20635
SfurOBP11; ligand concentration 2, replicate 3
  Fluorescence intensity, fluorescence competitive binding assay, OBP11: 20374
SfurOBP11; ligand concentration 4, replicate 1
  Fluorescence intensity, fluorescence competitive binding assay, OBP11: 19119
SfurOBP11; ligand concentration 4, replicate 2
  Fluorescence intensity, fluorescence competitive binding assay, OBP11: 21150
SfurOBP11; ligand concentration 4, replicate 3
  Fluorescence intensity, fluorescence competitive binding assay, OBP11: 19404
SfurOBP11; ligand concentration 6, replicate 1
  Fluorescence intensity, fluorescence competitive binding assay, OBP11: 20124
SfurOBP11; ligand concentration 6, replicate 2
  Fluorescence intensity, fluorescence competitive binding assay, OBP11: 20072
SfurOBP11; ligand concentration 6, replicate 3
  Fluorescence intensity, fluorescence competitive binding assay, OBP11: 19868
SfurOBP11; ligand concentration 8, replicate 1
  Fluorescence intensity, fluorescence competitive binding assay, OBP11: 18585
SfurOBP11; ligand concentration 8, replicate 2
  Fluorescence intensity, fluorescence competitive binding assay, OBP11: 21246
SfurOBP11; ligand concentration 8, replicate 3
  Fluorescence intensity, fluorescence competitive binding assay, OBP11: 19916
SfurOBP11; ligand concentration 10, replicate 1
  Fluorescence intensity, fluorescence competitive binding assay, OBP11: 19564
SfurOBP11; ligand concentration 10, replicate 2
  Fluorescence intensity, fluorescence competitive binding assay, OBP11: 19568
SfurOBP11; ligand concentration 10, replicate 3
  Fluorescence intensity, fluorescence competitive binding assay, OBP11: 19649
SfurOBP11; ligand concentration 12, replicate 1
  Fluorescence intensity, fluorescence competitive binding assay, OBP11: 19387
SfurOBP11; ligand concentration 12, replicate 2
  Fluorescence intensity, fluorescence competitive binding assay, OBP11: 19954
SfurOBP11; ligand concentration 12, replicate 3
  Fluorescence intensity, fluorescence competitive binding assay, OBP11: 20491
SfurOBP11; ligand concentration 14, replicate 1
  Fluorescence intensity, fluorescence competitive binding assay, OBP11: 19217
SfurOBP11; ligand concentration 14, replicate 2
  Fluorescence intensity, fluorescence competitive binding assay, OBP11: 19676
SfurOBP11; ligand concentration 14, replicate 3
  Fluorescence intensity, fluorescence competitive binding assay, OBP11: 19052
SfurOBP11; ligand concentration 16, replicate 1
  Fluorescence intensity, fluorescence competitive binding assay, OBP11: 18294
SfurOBP11; ligand concentration 16, replicate 2
  Fluorescence intensity, fluorescence competitive binding assay, OBP11: 18202
SfurOBP11; ligand concentration 16, replicate 3
  Fluorescence intensity, fluorescence competitive binding assay, OBP11: 18385
SfurOBP11; ligand concentration 18, replicate 1
  Fluorescence intensity, fluorescence competitive binding assay, OBP11: 17514
SfurOBP11; ligand concentration 18, replicate 2
  Fluorescence intensity, fluorescence competitive binding assay, OBP11: 18012
SfurOBP11; ligand concentration 18, replicate 3
  Fluorescence intensity, fluorescence competitive binding assay, OBP11: 18287
SfurOBP11; ligand concentration 20, replicate 1
  Fluorescence intensity, fluorescence competitive binding assay, OBP11: 16634
SfurOBP11; ligand concentration 20, replicate 2
  Fluorescence intensity, fluorescence competitive binding assay, OBP11: 17062
SfurOBP11; ligand concentration 20, replicate 3
  Fluorescence intensity, fluorescence competitive binding assay, OBP11: 17452
SfurOBP3; ligand concentration 2
  Fluorescence competitive binding assay, fluorescence intensity: 51848 and 49151 and 50500
SfurOBP3; ligand concentration 4
  Fluorescence competitive binding assay, fluorescence intensity: 50802 and 50041 and 48259
SfurOBP3; ligand concentration 6
  Fluorescence competitive binding assay, fluorescence intensity: 50158 and 49686 and 49223
SfurOBP3; ligand concentration 8
  Fluorescence competitive binding assay, fluorescence intensity: 48228 and 50693 and 49450
SfurOBP3; ligand concentration 10
  Fluorescence competitive binding assay, fluorescence intensity: 46402 and 47349 and 46178
SfurOBP3; ligand concentration 12
  Fluorescence competitive binding assay, fluorescence intensity: 39434 and 38976 and 40288
SfurOBP3; ligand concentration 14
  Fluorescence competitive binding assay, fluorescence intensity: 38805 and 38818 and 38804
SfurOBP3; ligand concentration 16
  Fluorescence competitive binding assay, fluorescence intensity: 34272 and 34325 and 34139
SfurOBP3; ligand concentration 18
  Fluorescence competitive binding assay, fluorescence intensity: 33102 and 34070 and 35044
SfurOBP3; ligand concentration 20
  Fluorescence competitive binding assay, fluorescence intensity: 32236 and 31361 and 31799
SfurOBP3; SfurOBP3, protein and 1-NPN both 2.0 µM, competitor 2-20 µM, read-out: IC50
  IC50: > 20 µM
SfurOBP1; ligand concentration 2 (μM)
  Fluorescence competitive binding assay, fluorescence intensity: 5110 and 5104 and 5112
SfurOBP1; ligand concentration 4 (μM)
  Fluorescence competitive binding assay, fluorescence intensity: 5716 and 6377 and 5308
SfurOBP1; ligand concentration 6 (μM)
  Fluorescence competitive binding assay, fluorescence intensity: 6462 and 7662 and 6319
SfurOBP1; ligand concentration 8 (μM)
  Fluorescence competitive binding assay, fluorescence intensity: 6113 and 5754 and 14807
SfurOBP1; ligand concentration 10 (μM)
  Fluorescence competitive binding assay, fluorescence intensity: 5995 and 6375 and 7413
SfurOBP1; ligand concentration 12 (μM)
  Fluorescence competitive binding assay, fluorescence intensity: 5970 and 7970 and 8226
SfurOBP1; ligand concentration 14 (μM)
  Fluorescence competitive binding assay, fluorescence intensity: 5770 and 8418 and 5488
SfurOBP1; ligand concentration 16 (μM)
  Fluorescence competitive binding assay, fluorescence intensity: 4972 and 5953 and 5038
SfurOBP1; ligand concentration 18 (μM)
  Fluorescence competitive binding assay, fluorescence intensity: 6525 and 7403 and 8592
SfurOBP1; ligand concentration 20 (μM)
  Fluorescence competitive binding assay, fluorescence intensity: 7343 and 8136 and 7739
SfurOBP1; SfurOBP1, protein and 1-NPN both 2.0 µM, competitor 2-20 µM, read-out: IC50
  IC50: > 20 µM
